System: P12-Ichikawa
Experiment: cell viability relative to DMSO control; higher = less cytotoxic
Conditions: 48 h
Procedure, shortened: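 Library compounds in DMSO were pin-dosed into 1536-well plates (5 μl) holding NOMO1 or SEM (500 cells/well) or P12-Ichikawa (1000 cells/well) leukemia cells, across an 11-point threefold series of 47 μM to 0.79 nM. Each cell line had been adapted for at least four passages in each medium. CellTiter-Glo One luminescence was read after 48 h at 37°C. Viability is the per-plate percentage relative to DMSO wells, with cell-free wells as background.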

CCOC(=O)[C@@]1(CCCCCCOc2ccc(Cl)cc2)CO1
cell viability [%]
Conditions	HPLM + 10% dialyzed FBS	RPMI 5 mM glucose + 10% FBS	RPMI 5 mM glucose + 10% dialyzed FBS
0.000781 µM	113	108	121
0.00234 µM	108	115	123
0.00702 µM	117	114	125
0.0211 µM	114	117	122
0.0632 µM	112	118	114
0.19 µM	113	111	111
0.569 µM	111	107	116
1.71 µM	105	110	107
5.12 µM	105	115	113
15.4 µM	95.2	104	107
46.1 µM	7.68	12.1	20.8

— the supplement of paper PMC11451515
